Measured values reported in paper PMC10551024, “A deazariboflavin chromophore kinetically stabilizes reduced FAD state in a bifunctional cryptochrome” (Scientific Reports, 2023).

What was measured:
Format in all cases: binding
CraCRY [1] = molecular target: T1, CraCRY (Chlamydomonas reinhardtii, UniProt A8J8W0); assay: UV/vis absorption after incubation and gel filtration; details: synthetic 8-HDF, 100 µM with 20 µM protein, on ice; secondary pocket, antenna chromophore; protein holds FAD
T1 construct: gene CHLRE_06g278251v5; lacks C-terminal tail (497-595); His-tagged, pET-28a(+), E. coli BL21(DE3); TALON and heparin purified
T1 sequence (A8J8W0 1-496): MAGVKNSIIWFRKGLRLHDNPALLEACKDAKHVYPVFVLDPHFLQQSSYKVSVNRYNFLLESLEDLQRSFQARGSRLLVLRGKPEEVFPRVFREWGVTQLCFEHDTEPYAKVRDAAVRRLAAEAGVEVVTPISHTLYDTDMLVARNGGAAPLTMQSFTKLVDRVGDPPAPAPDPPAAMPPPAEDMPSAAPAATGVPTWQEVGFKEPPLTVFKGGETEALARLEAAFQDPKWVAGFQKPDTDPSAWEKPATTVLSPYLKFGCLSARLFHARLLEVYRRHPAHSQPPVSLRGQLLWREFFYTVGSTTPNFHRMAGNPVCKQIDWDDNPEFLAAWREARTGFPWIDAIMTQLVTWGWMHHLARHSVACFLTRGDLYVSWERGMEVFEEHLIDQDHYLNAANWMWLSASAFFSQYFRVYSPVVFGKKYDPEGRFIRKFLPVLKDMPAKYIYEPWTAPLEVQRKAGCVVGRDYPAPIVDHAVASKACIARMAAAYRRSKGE

Xl64 [2] = molecular target: T2, Xl64 (Xenopus laevis, UniProt Q9I910); assay: as above; details: synthetic 8-HDF, 100 µM with 20 µM protein, on ice; secondary pocket, antenna chromophore; protein holds FAD
T2 construct: gene Xl64phr; recombinant, pET-28a(+), E. coli C41(DE3)/pLysS
T2 sequence (Q9I910 1-526): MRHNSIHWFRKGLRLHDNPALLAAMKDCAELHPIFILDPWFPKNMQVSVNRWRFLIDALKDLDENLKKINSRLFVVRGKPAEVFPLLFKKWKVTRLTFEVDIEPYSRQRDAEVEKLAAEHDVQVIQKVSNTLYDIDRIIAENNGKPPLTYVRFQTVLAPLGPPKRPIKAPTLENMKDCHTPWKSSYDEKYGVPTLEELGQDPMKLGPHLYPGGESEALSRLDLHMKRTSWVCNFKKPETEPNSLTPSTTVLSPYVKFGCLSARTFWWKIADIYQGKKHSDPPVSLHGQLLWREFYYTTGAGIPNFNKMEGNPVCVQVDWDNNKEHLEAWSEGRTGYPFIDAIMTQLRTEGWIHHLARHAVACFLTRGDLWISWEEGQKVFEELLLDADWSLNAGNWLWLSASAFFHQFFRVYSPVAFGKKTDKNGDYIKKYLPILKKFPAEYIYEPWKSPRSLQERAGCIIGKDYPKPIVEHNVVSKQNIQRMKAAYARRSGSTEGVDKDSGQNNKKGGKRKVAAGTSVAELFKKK

At64 [3] = molecular target: T3, At64 (Arabidopsis thaliana, UniProt O48652); assay: UV/vis spectroscopy of purified holoprotein; xanthine/xanthine oxidase redox titration; details: co-purified FAD; pH 7.0, Safranin T reference
T3 construct: gene UVR3; recombinant, pET-28a(+), E. coli C41(DE3)/pLysS
T3 sequence (O48652 20-556): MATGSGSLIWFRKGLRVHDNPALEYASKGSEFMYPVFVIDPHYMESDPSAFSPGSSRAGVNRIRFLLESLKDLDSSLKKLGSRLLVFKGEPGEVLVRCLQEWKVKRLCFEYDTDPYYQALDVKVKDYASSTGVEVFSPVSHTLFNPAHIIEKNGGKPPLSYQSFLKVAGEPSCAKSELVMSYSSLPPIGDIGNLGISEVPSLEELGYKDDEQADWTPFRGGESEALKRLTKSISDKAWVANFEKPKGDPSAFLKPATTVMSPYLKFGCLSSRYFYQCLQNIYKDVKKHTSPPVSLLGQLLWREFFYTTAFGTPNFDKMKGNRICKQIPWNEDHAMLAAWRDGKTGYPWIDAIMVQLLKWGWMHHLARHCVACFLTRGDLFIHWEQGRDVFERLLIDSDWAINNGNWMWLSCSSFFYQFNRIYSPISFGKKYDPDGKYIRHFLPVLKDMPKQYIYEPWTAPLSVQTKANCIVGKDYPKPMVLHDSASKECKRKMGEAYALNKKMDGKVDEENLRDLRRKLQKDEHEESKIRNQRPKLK

Xl64 [4] = molecular target: T2, Xl64; assay: as above; details: co-purified FAD; pH 7.0, Safranin T reference
At64 [5] = molecular target: T4, At64 (Arabidopsis thaliana, UniProt O48652, DEL46-53); assay: as above; details: At64-ΔExLoop, extended loop Ser46 to Pro53 deleted; co-purified FAD; pH 7.0, Safranin T reference
T4 construct: gene UVR3; recombinant, pET-28a(+), E. coli C41(DE3)/pLysS
T4 sequence (O48652 with tags, fused parts or gaps DEL46-53): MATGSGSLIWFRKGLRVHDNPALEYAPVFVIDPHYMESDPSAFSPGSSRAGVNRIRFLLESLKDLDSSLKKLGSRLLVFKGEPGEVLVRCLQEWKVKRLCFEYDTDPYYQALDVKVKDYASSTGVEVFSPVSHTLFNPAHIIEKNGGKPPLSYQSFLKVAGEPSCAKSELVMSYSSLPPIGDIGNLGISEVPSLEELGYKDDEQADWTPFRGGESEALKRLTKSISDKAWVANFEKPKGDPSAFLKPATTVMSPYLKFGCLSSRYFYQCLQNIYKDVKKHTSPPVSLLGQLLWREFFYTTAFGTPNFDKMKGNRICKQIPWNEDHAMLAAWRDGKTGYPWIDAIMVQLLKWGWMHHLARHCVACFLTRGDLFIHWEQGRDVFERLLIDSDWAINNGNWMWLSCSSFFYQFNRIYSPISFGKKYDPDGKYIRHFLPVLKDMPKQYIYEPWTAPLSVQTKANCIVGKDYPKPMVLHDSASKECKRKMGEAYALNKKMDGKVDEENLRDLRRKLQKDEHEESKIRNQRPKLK

CraCRY [6] = molecular target: T1, CraCRY; assay: as above; details: co-purified FAD; pH 7.0, Safranin T reference

`O=c1nc2n(C[C@H](O)[C@H](O)[C@H](O)CO)c3cc(O)ccc3cc-2c(=O)[nH]1` [8-HDF, 8-hydroxy-7,8-didemethyl-5-deazariboflavin] was tested, and the “absorption maximum of the complex” value (CraCRY [1]) was 448 nm and the “absorption maximum of the complex” value (Xl64 [2]) was 441 nm.

In the case of `Cc1cc2nc3c(=O)[nH]c(=O)nc-3n(C[C@H](O)[C@H](O)[C@H](O)COP(=O)(O)OP(=O)(O)OC[C@H]3O[C@@H](n4cnc5c(N)ncnc54)[C@H](O)[C@@H]3O)c2cc1C` [FAD, flavin adenine dinucleotide], the “UV/vis spectroscopy of purified holoprotein; xanthine/xanthine oxidase redox tit” value (At64 [3]) is reported as “the Em,FAD values of the tested proteins (Xl64, At64, and CraCRY) were identical”, the “UV/vis spectroscopy of purified holoprotein; xanthine/xanthine oxidase redox tit” value (Xl64 [4]) is reported as “the Em,FAD values of the tested proteins (Xl64, At64, and CraCRY) were identical” and the “UV/vis spectroscopy of purified holoprotein; xanthine/xanthine oxidase redox tit” value (At64 [5]) is reported as “the deletion of the extended loop did not affect the FAD binding site”. The “UV/vis spectroscopy of purified holoprotein; xanthine/xanthine oxidase redox tit” value (CraCRY [6]) was “the Em,FAD values of the tested proteins (Xl64, At64, and CraCRY) were identical”.
